Assay results reported in patent publication US20240285664A1, “LINE-1 INHIBITORS AS COGNITIVE ENHANCERS” (TRANSPOSON THERAPEUTICS, INC., priority 2021, published 2024).
“Also recorded” adds a separate entry of the source. Where two headings read alike, the source gives them in different places.

Test system: human LINE-1
Test: Human LINE-1 retrotransposition assay (HeLa cell-based dual-luciferase reporter)
Details: HeLa cells; for IC50: reporter plasmid pYX017, 72 h incubation, Firefly/Renilla luciferase, read-out: Human LINE-1 IC50 (μM), Human L1 activity inhibition; for human LINE-1 inhibitor activity compared to the other reverse transcriptase inhibitors tested (in words): summary of Table 1
Method: Islatravir and other compounds were tested for inhibition of retrotransposition activity of human LINE-1 in HeLa cells according to the following procedure.
HeLa cervical cancer cells were cultivated at 37° C. in a humidified 5% CO2 incubator in Dulbecco's Modified Eagle's Medium (DMEM)—high glucose, with 4500 mg/L glucose, L-glutamine, sodium pyruvate and sodium bicarbonate (Sigma), supplemented with 10% of heat inactivated fetal bovine serum (Thermo Fisher).
Assays were performed using reporter plasmid pYX017 as described (Xie, et al., 2011) with several modifications. The reporter assay was performed in 96-well white optical bottom plates. HeLa cells were seeded in wells 24 h prior to transfection and compound treatment so that cells were approximately 30% confluent on the day of transfection. Different cell plating densities were tested and a density of 2×10^3 cells was determined to be optimal.
Compounds were resuspended in DMSO. Serial dilutions (1:3) were prepared in DMSO. Medium containing different concentrations of the compounds were prepared by adding 2 μl of the compound dilution to 1 ml of the culture medium. The final concentration of DMSO in the medium was 0.2%.
FuGENE® HD transfection reagent (Promega, E2311, Lot 382574 and Lot 397842) was used to transfect the plasmids into the cells. The transfection reagent: DNA mixture was prepared in OpiMEM (Thermo Fisher) according to manufacturer's instructions. Different ratios of transfection reagent to DNA were tested and a ratio of 3:1 was determined to be optimal. Culture medium was removed from the cells and discarded. The transfection reagent: DNA mixture (5 μl) was mixed with the compound containing medium (100 μl/well) and this was added onto the cells of each well. Cells were incubated at 37° C./5% C02 for different incubation time. A 72 h incubation time was determined to be optimal.
Luciferase reporter activity was quantified with the Dual-Luciferase® Reporter Assay System (Promega) according to manufacturer's instructions for multiwell plates except that cells were lysed directly on the multiwell plate with 30 μl of the passive lysis buffer (PLB) for 20 min at room temperature, with gentle shaking to ensure complete cell lysis.
Firefly and Renilla luciferase signals were measured using a SpectraMax i3x Multi-Mode Microplate Reader. Integration times of 100 ms and 10 ms were used to measure the Firefly and Renilla signals respectively. Relative L1 activity is calculated as Firefly/Renilla*1000 or Firefly/Renilla*10,000. Dose response inhibition data were fit to a four parameter logistic equation using non-linear regression (using Graphpad Prism 8), to determine IC50 values for each inhibitor.

| Structure (SMILES) | IC50 (Homo sapiens) | other results |
| --- | --- | --- |
| O=C(NCc1c(F)cc(F)cc1F)c1cn2c(c(O)c1=O)C(=O)N1[C@H]3CC[C@H](C3)O[C@@H]1C2 [Bictegravir] | > 12.4 µM | – |
| C#C[C@@]1(CO)C=C[C@H](n2cc(C)c(=O)[nH]c2=O)O1 [Censavudine, 4′-ethynylstavudine] | 0.07 µM | human LINE-1 inhibitor activity compared to the other reverse transcriptase inhibitors tested (in words): unexpectedly better human LINE-1 inhibitor activity; also recorded: surprisingly potent |
| C#C[C@]1(CO)O[C@@H](n2cc(C)c(O)nc2=O)C[C@@H]1O [Cpd. No. 2] | 0.393 µM | – |
| C#C[C@]1(CO)O[C@@H](n2cc(Br)c(O)nc2=O)C[C@@H]1O [Cpd. No. 4] | 0.489 µM | – |
| C#C[C@]1(CO)O[C@@H](n2ccc(N)nc2=O)C[C@@H]1O [Cpd. No. 7, 4-amino-1-((2R,4S,5R)-5-ethynyl-4-hydroxy-5 (hydroxymethyl)tetrahydrofuran-2-yl)pyrimidin-2(1H)-one] | 0.0091 µM | – |
| C#C[C@]1(CO)O[C@@H](n2cc(F)c(N)nc2=O)C[C@@H]1O [Cpd. No. 9] | 0.0209 µM | – |
| C#C[C@]1(CO)O[C@@H](n2cnc3c(O)nc(N)nc32)C[C@@H]1O [Cpd. No. 13] | 0.00051 µM | – |
| C=C[C@]1(CO)O[C@@H](n2cnc3c(N)nc(F)nc32)C[C@@H]1O [Cpd. No. 20] | 0.011 µM | – |
| C#C[C@]1(CO)O[C@@H](n2cnc3c(N)ncnc32)C[C@@H]1O [Cpd. No. 23] | > 50 µM | – |
| C=C[C@]1(CO)O[C@@H](n2ccc(N)nc2=O)C[C@@H]1O [Cpd. No. 24] | 0.008 µM | – |
| CC[C@]1(CO)O[C@@H](n2cc(C)c(=O)[nH]c2=O)C[C@@H]1O [Cpd. No. 26] | 2 µM | – |
| CC[C@]1(CO)O[C@@H](n2cnc3c(O)nc(N)nc32)C[C@@H]1O [Cpd. No. 27] | 0.003 µM | – |
| C[C@@H]1CCO[C@H]2Cn3cc(C(=O)NCc4ccc(F)cc4F)c(=O)c(O)c3C(=O)N12 [Dolutegravir sodium] | > 9.38 µM | – |
| O=C1Nc2ccc(Cl)cc2[C@@](C#CC2CC2)(C(F)(F)F)O1 [Efavirenz] | > 0.25 µM | – |
| Nc1nc(=O)n([C@@H]2C=C[C@H](CO)O2)cc1F [Elvucitabine] | 0.09 µM | – |
| C#C[C@]1(CO)O[C@@H](n2cnc3c(N)nc(F)nc32)C[C@@H]1O [Islatravir, 2′-deoxy-4′-ethynyl-2-fluoroadenosine] | – | human LINE-1 inhibitor activity compared to the other reverse transcriptase inhibitors tested (in words): unexpectedly better human LINE-1 inhibitor activity; human LINE-1 inhibitor activity compared to the other reverse transcriptase inhibitors tested (in words) (listed as islatravir): surprisingly potent |
| Nc1ccn([C@@H]2CS[C@H](CO)O2)c(=O)n1 [Lamivudine] | 0.64 µM | – |
| Cc1ccnc2c1NC(=O)c1cccnc1N2C1CC1 [Nevirapine] | > 50 µM | – |
| Cc1nnc(C(=O)NC(C)(C)c2nc(C(=O)NCc3ccc(F)cc3)c(O)c(=O)n2C)o1 [Raltegravir potassium] | > 9.86 µM | – |
| Cc1cc(/C=C/C#N)cc(C)c1Nc1ccnc(Nc2ccc(C#N)cc2)n1 [Rilpivirine] | > 15.1 µM | – |
| Cc1cn([C@H]2C=C[C@@H](CO)O2)c(=O)[nH]c1=O [Stavudine] | 0.75 µM | – |
| CC(C)OC(=O)OCOP(=O)(CO[C@H](C)Cn1cnc2c(N)ncnc21)OCOC(=O)OC(C)C [Tenofovir disoproxil] | 0.2 µM | – |
| C[C@H](Cn1cnc2c(N)ncnc21)OCP(=O)(O)O [Tenofovir] | – | IC50: 2.77 µM |
| Cc1cn([C@H]2C[C@H](N=[N+]=[N-])[C@@H](CO)O2)c(=O)[nH]c1=O [Zidovudine] | 0.81 µM | – |
